Measurements taken from PubChem BioAssay (NCI).
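Method: 48-hour compound exposure of cells in 96-well plates, five concentrations, linear interpolation of endpoints. TGI: total growth inhibition.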

Experiments:
Test in all cases: NCI anticancer screen, dose series, 48 h
[1] = test system: HOP-62 NSCLC
[2] = test system: HOP-92 NSCLC
[3] = test system: RPMI-8226 leukemia
[4] = test system: HL-60(TB) leukemia
[5] = test system: SNB-75 CNS
[6] = test system: CAKI-1 renal
[7] = test system: SF-295 CNS
[8] = test system: IGROV1 ovarian
[9] = test system: SK-MEL-5 melanoma
[10] = test system: SF-539 CNS
[11] = test system: NCI-H460 lung
[12] = test system: COLO 205 colon
[13] = test system: MOLT-4 leukemia
[14] = test system: SW-620 colon
[15] = test system: M19-MEL melanoma
[16] = test system: KM20L2 colon
[17] = test system: OVCAR-3 ovarian
[18] = test system: LXFL 529 NSCLC
[19] = test system: M14 melanoma
[20] = test system: HOP-18 NSCLC
[21] = test system: SK-MEL-28 melanoma
[22] = test system: SNB-19 CNS
[23] = test system: A549 NSCLC
[24] = test system: SF-268 CNS
[25] = test system: DMS 273 small cell lung
[26] = test system: OVCAR-5 ovarian
[27] = test system: NCI-H226 lung
[28] = test system: 786-0 renal
[29] = test system: XF 498 CNS
[30] = test system: SNB-78 CNS
[31] = test system: NCI-H522 lung
[32] = test system: ACHN renal
[33] = test system: LOX IMVI melanoma
[34] = test system: EKVX NSCLC
[35] = test system: UO-31 renal
[36] = test system: SK-OV-3 ovarian
[37] = test system: SR leukemia
[38] = test system: DMS 114 small cell lung
[39] = test system: A498 renal
[40] = test system: RXF-631 renal
[41] = test system: HCT-15 colon
[42] = test system: CCRF-CEM leukemia
[43] = test system: SN12C renal
[44] = test system: NCI-H23 lung
[45] = test system: SK-MEL-2 melanoma
[46] = test system: KM12 colon
[47] = test system: TK-10 renal
[48] = test system: K-562 leukemia
[49] = test system: OVCAR-8 ovarian
[50] = test system: HT29 colon
[51] = test system: MALME-3M melanoma
[52] = test system: UACC-62 melanoma
[53] = test system: HCT-116 colon
[54] = test system: RXF 393 renal
[55] = test system: DLD-1 colon
[56] = test system: OVCAR-4 ovarian
[57] = test system: U251 CNS
[58] = test system: UACC-257 melanoma
[59] = test system: HCC-2998 colon
[60] = test system: MDA-MB-435
[61] = test system: MDA-N
[62] = test system: NCI/ADR-RES ovarian
[63] = test system: HS 578T breast
[64] = test system: MDA-MB-231 breast
[65] = test system: MCF7 breast
[66] = test system: DU-145 prostate
[67] = test system: BT-549 breast
[68] = test system: T-47D breast
[69] = test system: PC-3 prostate

Structure (SMILES): CCOC(=O)c1s/c(=N\Nc2nc3ccccc3cc2C2OCCO2)n(Cc2ccccc2)c1C
- TGI [1]: > 100 µM
- TGI [2]: > 100 µM
- TGI [3]: > 100 µM
- TGI [4]: > 100 µM
- TGI [5]: > 100 µM
- TGI [6]: > 100 µM
- TGI [7]: > 100 µM
- TGI [8]: > 100 µM
- TGI [9]: > 100 µM
- TGI [10]: > 100 µM
- TGI [11]: > 100 µM
- TGI [12]: > 100 µM
- TGI [13]: > 100 µM
- TGI [14]: > 100 µM
- TGI [15]: > 100 µM
- TGI [16]: > 100 µM
- TGI [17]: > 100 µM
- TGI [18]: > 100 µM
- TGI [19]: > 100 µM
- TGI [20]: > 100 µM
- TGI [21]: > 100 µM
- TGI [22]: > 100 µM
- TGI [23]: > 100 µM
- TGI [24]: > 100 µM
- TGI [25]: > 100 µM
- TGI [26]: > 100 µM
- TGI [27]: > 100 µM
- TGI [28]: > 100 µM
- TGI [29]: > 100 µM
- TGI [30]: > 100 µM
- TGI [31]: > 100 µM
- TGI [32]: > 100 µM
- TGI [33]: > 100 µM
- TGI [34]: > 100 µM
- TGI [35]: > 100 µM
- TGI [36]: > 100 µM
- TGI [37]: > 100 µM
- TGI [38]: > 100 µM
- TGI [39]: > 100 µM
- TGI [40]: > 100 µM
- TGI [41]: > 100 µM
- TGI [42]: > 100 µM
- TGI [43]: > 100 µM
- TGI [44]: > 100 µM
- TGI [45]: > 100 µM
- TGI [46]: > 100 µM
- TGI [47]: > 100 µM
- TGI [48]: > 100 µM
- TGI [49]: > 100 µM
- TGI [50]: > 100 µM
- TGI [51]: > 100 µM
- TGI [52]: > 100 µM
- TGI [53]: > 100 µM
- TGI [54]: > 100 µM
- TGI [55]: > 100 µM
- TGI [56]: > 100 µM
- TGI [57]: > 100 µM
- TGI [58]: > 100 µM

Structure (SMILES): O=[N+]([O-])c1cnn(C2=CNc3ccccc3N=C2)c1
- TGI [1]: > 100 µM
- TGI [2]: > 100 µM
- TGI [4]: > 100 µM
- TGI [5]: > 100 µM
- TGI [7]: > 100 µM
- TGI [10]: > 100 µM
- TGI [11]: > 100 µM
- TGI [12]: > 100 µM
- TGI [13]: > 100 µM
- TGI [15]: > 100 µM
- TGI [16]: > 100 µM
- TGI [17]: > 100 µM
- TGI [20]: > 100 µM
- TGI [21]: > 100 µM
- TGI [22]: > 100 µM
- TGI [23]: > 100 µM
- TGI [24]: > 100 µM
- TGI [25]: > 100 µM
- TGI [26]: > 100 µM
- TGI [27]: > 100 µM
- TGI [28]: > 100 µM
- TGI [29]: > 100 µM
- TGI [30]: > 100 µM
- TGI [32]: > 100 µM
- TGI [34]: > 100 µM
- TGI [35]: > 100 µM
- TGI [36]: > 100 µM
- TGI [37]: > 100 µM
- TGI [59]: > 100 µM
- TGI [40]: > 100 µM
- TGI [41]: > 100 µM
- TGI [42]: > 100 µM
- TGI [43]: > 100 µM
- TGI [44]: > 100 µM
- TGI [45]: > 100 µM
- TGI [47]: > 100 µM
- TGI [49]: > 100 µM
- TGI [50]: > 100 µM
- TGI [51]: > 100 µM
- TGI [52]: > 100 µM
- TGI [53]: > 100 µM
- TGI [54]: > 100 µM
- TGI [55]: > 100 µM
- TGI [57]: > 100 µM
- TGI [58]: > 100 µM

Structure (SMILES): COc1ccc(N2C(=O)[C@H]3CC(C)c4c([nH]c5ccccc45)[C@H]3C2=O)cc1 (stereo not given in full)
- TGI [1]: 16.3 µM
- TGI [60]: 2.3 µM
- TGI [2]: 23.3 µM
- TGI [3]: 39.3 µM
- TGI [4]: 20.1 µM
- TGI [5]: 12.5 µM
- TGI [6]: 27.3 µM
- TGI [7]: 7.71 µM
- TGI [8]: 85.9 µM
- TGI [9]: 36.6 µM
- TGI [10]: 10.5 µM
- TGI [11]: 41.9 µM
- TGI [12]: 9.11 µM
- TGI [13]: 49.4 µM
- TGI [61]: 3.4 µM
- TGI [14]: > 86.8 µM
- TGI [62]: 12.4 µM
- TGI [15]: 55.5 µM
- TGI [63]: 33.4 µM
- TGI [16]: 12.7 µM
- TGI [17]: 6.68 µM
- TGI [18]: 26.8 µM
- TGI [19]: 39.9 µM
- TGI [21]: 57.8 µM
- TGI [22]: > 71.8 µM
- TGI [23]: > 90.7 µM
- TGI [24]: > 76.2 µM
- TGI [25]: 17.2 µM
- TGI [26]: > 85.6 µM
- TGI [64]: > 54.8 µM
- TGI [27]: 38.3 µM
- TGI [28]: 16.4 µM
- TGI [29]: 22.4 µM
- TGI [30]: > 59.5 µM
- TGI [65]: > 100 µM
- TGI [31]: 4.24 µM
- TGI [32]: > 76.8 µM
- TGI [33]: 63.8 µM
- TGI [34]: > 95 µM
- TGI [35]: 83.8 µM
- TGI [36]: 23.6 µM
- TGI [37]: > 100 µM
- TGI [66]: > 45.8 µM
- TGI [38]: 7.32 µM
- TGI [39]: 77.7 µM
- TGI [59]: 69 µM
- TGI [41]: > 100 µM
- TGI [42]: 46.9 µM
- TGI [43]: 83.9 µM
- TGI [44]: 29.4 µM
- TGI [45]: 16.5 µM
- TGI [46]: 63.1 µM
- TGI [47]: 52.7 µM
- TGI [48]: 20 µM
- TGI [67]: > 80.7 µM
- TGI [49]: 55.9 µM
- TGI [50]: 21 µM
- TGI [68]: 68.8 µM
- TGI [51]: 33.9 µM
- TGI [52]: 22.7 µM
- TGI [53]: 30.8 µM
- TGI [54]: 9.75 µM
- TGI [55]: > 41.5 µM
- TGI [56]: 30.6 µM
- TGI [57]: 20.4 µM
- TGI [69]: 23.6 µM
- TGI [58]: > 93.9 µM
